Results published in patent publication US20080234345A1, “METHOD FOR REDUCING OR ALLEVIATING INFLAMMATION IN THE DIGESTIVE TRACT” (Gene Logic Inc., priority 2006, published 2008).

Experiments:
[1] = system: NF-κB dependent transcription; assay: In vivo basal NF-κB dependent transcription in NF-κB::Luc reporter mice, abdominal imaging; conditions: 4 hours
Excerpt: GL1001 was further tested for in vivo anti-inflammatory activity by examining its effects on basal levels of NF-κB dependent transcription in mice engineered in the germline with a construct containing an NF-κB enhancer linked to a luciferase gene (i.e., NF-κB::Luc mice), such that this NF-κB reporter construct is present in all cells of the mice.
More particularly, transgenic NF-κB::Luc mice were generated using three NF-κB response elements from the Igκ light chain promoter fused to a firefly luciferase gene as described by Carlsen et al. (2002) J. Immunol. 168:1441-1446. Pronuclear microinjection of purified construct DNA was used to generate transgenic founders in the C57BL/6 XCBA/J background. Founders were subsequently back crossed to the C57BL/6 albino background. […] Signal data were also quantitated and archived using the Living Image® software. Photons of light were quantitated using an oval region of interest (ROI) of varying sizes depending on the procedure, as described further below.
To test for in vivo effects of GL1001 on basal levels of NF-κB dependent transcription, male NF-κB::Luc mice were subjected to quantitative in vivo imaging of the abdominal area (using a fixed ROI of 2.76×3.7 cm) as described above, immediately before, and at 2, […]

[2] = system: DSS-induced NF-κB signaling; assay: Subsequent DSS study in NF-κB::Luc mice, oral gavage; assay type: in vivo; conditions: 300 mg/kg/day, twice daily by oral gavage; 2.5% DSS
Excerpt: In a subsequent study in NF-κB::Luc mice, 2.5% DSS treatment tended to increase NF-κB signaling, as measured by luciferase expression, in distal colon and mesenteric lymph tissues, although these increases were generally not statistically significant. […] Reasons for lack of effect of GL1001 in this study are not fully understood at present.

[3] = system: NF-κB dependent transcription; assay: In vivo LPS induced NF-κB dependent transcription in NF-κB::Luc mice, abdominal imaging
Excerpt: More particularly, transgenic NF-κB::Luc mice were generated using three NF-κB response elements from the Igκ light chain promoter fused to a firefly luciferase gene as described by Carlsen et al. (2002) J. Immunol. 168:1441-1446. Pronuclear microinjection of purified construct DNA was used to generate transgenic founders in the C57BL/6 XCBA/J background. Founders were subsequently back crossed to the C57BL/6 albino background. All experimental protocols were approved by the Institutional Animal Care and Use Committee and conform to the ILAR guide for the care and used of laboratory animals. For in vivo imaging, NF-κB::Luc mice were injected intraperitoneally with luciferin (150 mg/kg) 10 minutes before imaging, anesthetized (using 1-3% isoflurane) and placed into a light-tight camera box. […] Signal data were also quantitated and archived using the Living Image® software. Photons of light were quantitated using an oval region of interest (ROI) of varying sizes depending on the procedure, as described further below.
GL1001 was further tested for in vivo anti-inflammatory activity by examining its effects on bacterial LPS induced NF-κB dependent transcription, in NF-κB::Luc mice. […] Mice were subjected to quantitative abdominal imaging at 2, 4 and 6 h following LPS administration, as described above. […] Luciferase signal was quantitated from several regions of interest. […]

[4] = system: activator protein-1 (AP-1); assay: Basal in vivo reporter luciferase expression in AP-1::Luc mice; conditions: AP-1::Luc mice (data not shown)
[5] = system: NF-κB dependent transcription; assay: TNFα-induced activation of NF-κB in recombinant HeLa reporter cells (luciferase); assay type: cell-based
Excerpt: To test the ACE2 inhibitor GL1001 for anti-inflammatory activity relevant to IBD, effects of the compound on activation of NF-κB dependent transcription by TNFα were examined in recombinant reporter cells containing a construct with a luciferase reporter gene under control of NF-κB dependent regulatory sequences, thereby allowing detection of NF-κB dependent transcription by measuring reporter enzyme using a conventional luciferase activity assay based on detection of generated light.
In particular, HeLa cells (American Type Culture Collection) were grown in Dulbecco's modified Eagles medium (DMEM) supplemented with 10% fetal calf serum and transiently transfected with an NF-κB-luc construct (Stratagene, Inc.), as follows (with all incubation steps at 37 C unless otherwise indicated). Cells were seeded and grown to about 70% confluency in a 10 cm cell culture dish. Plasmid DNA (10 μg) was added to 1 ml serum free DMEM media in a tube. Fugene 6 transfection reagent (30 μl) (Roche) was then pipetted slowly into the tube and the contents were gently mixed by inversion. The mixture was incubated at room temperature for 15 minutes and then added dropwise to cells in one 10 cm dish. Following incubation for 24 hours, cells were detached from the plate with Trypsin-EDTA (Gibco-BRL), transferred to wells in a clear-bottom white 96-well test plate (Fisher) with 100 μl per well serum free DMEM, at a density of 3×10^4 cells per well, and allowed to attach overnight. Compound (GL1001) was then added to wells at a concentration of approximately 0, 0.008, 0.04, 0.2, 1.0 or 5.0 μM, followed immediately by addition of TNFα (R&D) to a final concentration of 20 ng/ml. After incubation for 6 hours, 100 μl of Bright-Glo Luciferase buffer (Promega, Cat# E2610) was added, and the plate was incubated at room temperature, with mild shaking, for 10 min. Bioluminescence was then measured using a Veritas luminometer (Turner BioSystems). Each plotted data point represents the average bioluminescence of 4 independent wells.

CC(C)C[C@H](N[C@@H](Cc1cncn1Cc1cc(Cl)cc(Cl)c1)C(=O)O)C(=O)O [GL1001, (S,S)-2-[1-carboxy-2-[3-(3,5-dichlorobenzyl)-3H-imidazol-4-yl]-ethylamino]-4-methylpentanoic acid]
inhibition of basal in vivo levels of NF-κB dependent transcription in abdominal ROI ([1]; 300 mg/kg subcutaneous, p<0.01): over 40%
inhibition of basal in vivo levels of NF-κB dependent transcription in abdominal ROI ([1]; both lower doses, subcutaneous): lesser but still significant extents
DSS-induced NF-κB signaling (luciferase expression) [2]: did not lower
LPS induced NF-κB signaling response, abdominal region ([3]; GL1001 30, 100, 300 mg/kg s.c. 1 hour before LPS i.v. (FIG. 4)): significantly reduced
LPS induced NF-κB signaling ([3]; at 30 and 100 mg/kg, dose range 3-100 mg/kg (FIG. 5)): significantly reduced
basal in vivo levels of reporter luciferase expression [4]: no significant effect
inhibition of TNFα induced activation of NF-κB dependent transcription ([5]; 8 nM GL1001, TNFα 20 ng/ml, 6 hours): over 80%
maximal inhibition of TNFα induced activation of NF-κB dependent transcription ([5]; 0.2 μM GL1001, TNFα 20 ng/ml, 6 hours): over 95%
TNFα induced activation of NF-κB dependent transcription ([5]; all tested concentrations (0.008-5.0 μM)): significantly inhibited
